The text below walks through data of US20230000832A1, “USE OF NEUROPILIN ANTAGONISTS FOR THE TREATMENT OF ENDOMETRIOSIS” (INSERM (Institut National de la Santé et de la Recherche …, priority 2019, published 2023).

Each structure is given as a SMILES string. Entries after “also recorded” stand apart in the source; their conditions may differ.

Assay [1] deals with human primary unmodified endometrial cell line (TH-EM1). Put plainly: Apoptosis assay (Annexin-V/7AAD, flow cytometry). The format is cell-based. The following applies: 10^−6 M, 72 h, versus untreated and DMSO treated cells. The procedure: (§1) The human primary unmodified endometrial cell line (TH-EM1) describes by Gogusev j et al. 2019 is cultured with Dulbecco modified Eagle medium supplemented with 10% of fetal calf serum (FCS), L-glutamine, and antibiotics (Invitrogen-Thermo Fisher, Cergy-Pontoise, France). Cells were plated in 96-well plates or in 12-well plates to study cell proliferation or apoptosis, respectively.
Cells were plated in 2000 μL/well in 12-well plates at 5·10^5 cells/well and were treated or not with Neuropilin antagonists (NRPa) such as NRPa-47, NRPa-48 during 48 h to 72 h at 10^−6M. Then, cells are harvested and stained using Annexin-V/7AAD kit protocol following manufacturer's recommendation. Then, stained cells were analyzed on a fluorescence activated cell sorter (FACS) Calibur flow cytometer (Becton Dickinson Co, Mountain View, Calif.) and data analysis was performed with Flowjo software.
Background: In flow cytometry, cells or beads pass a laser one at a time.

Assay [2] has the same test system. Put plainly: Cell proliferation assay (WST-1) on primary endometrial cells. It is filed as cell-based. The note with it: for endometrial growth inhibition: high concentration 10^−5M, since 2 days (D2) of exposure; for exposure time to reach maximum efficiency: low concentration between 10^−6 and 10^−7 M, effect stable at D5. The procedure:
as §1
Cells were plated in 200 μL/well in 96-well plates at 10^4 cells/well and were treated or not with Neuropilin antagonists (NRPa) such as NRPa-47, NRPa-48 at several concentration (10^−5 to 5·10^−8M) alone or in association with different concentrations of progestatif drugs such as Lutenyl® (Nomegestrol acetate) at 3·10^−5 M during 48 h, 72 h or 120 h. WST-1 (Roche®, France) was added for 2 h, then Optical Density was analyzed with a microplate reader (Microplate Manager 5.2, Bio-Rad) at 490 nm to determine the cell viability.
For orientation: Formazan colour is commonly taken as a measure of viable cells.

Turning to `Cc1ccc(-c2nc3ccccc3[nH]2)cc1NC(=S)NC(=O)c1ccc2c(c1)OCCO2` [NRPa-47, N-[5-(1H-benzimidazol-2-yl)-2-methylphenyl]-N′-(2,3-dihydro-1,4-benzodioxin-6-ylcarbonyl)thiourea], in assay [1], the “induction of apoptosis and necrosis / cell death of endometrial cells” value was “induction of apoptosis; also recorded: induced endometrial cell death”. In assay [2] (Homo sapiens, 10^−5M, after 48 h (D2), consistent at 72 h (D3), read-out: decrease of cell survival / inhibition of endometrial cells), the inhibition at 10 µM is 80%. Also, the “IC50 on primary endometrial cell proliferation” value in assay [2] (NRPa alone, concentration range, time course D2 to D5, approximative/calculated) is 10^−6 to 10^−7 M. Moreover, the “effect of association with progestogen on cell growth inhibition” value in assay [2] (NRPa-47 5·10^−7M (6·10^−7 M) with Lutenyl (Nomegestrol acetate) 3·10^−5 M) is recorded as “Additif effect; also recorded: additive effect”. Also, in assay [2], the “endometrial growth inhibition” value is “rapid endometrial growth inhibition” and the “exposure time to reach maximum efficiency” value was determined as 3 days.

Take `O=C(NC(=S)Nc1cccc(-c2nc3ccccc3[nH]2)c1)c1ccc2c(c1)OCCO2` [NRPa-48, N-[3-(1H-benzimidazol-2-yl)phenyl]-N′-(2,3-dihydro-1,4-benzodioxin-6-ylcarbonyl)thiourea]: the “induction of apoptosis and necrosis / cell death of endometrial cells” value in assay [1] was “induction of apoptosis; also recorded: induced endometrial cell death”. In addition, the half-inhibitory concentration (IC50) in assay [2] (Homo sapiens, NRPa alone, approximative, same value restated in nM) is about 100 nM; in assay [2] (Homo sapiens, NRPa alone, concentration range, time course D2 to D5, approximative/calculated), 100 nM. Besides, the “effect of association with progestogen on cell growth inhibition” value in assay [2] (NRPa-48 5·10^−8M with Lutenyl (Nomegestrol acetate) 3·10^−5 M) is recorded as “synergistic effect”. Further, in assay [2], the “endometrial growth inhibition” value is “rapid endometrial growth inhibition”. In addition, the “exposure time to reach maximum efficiency” value in assay [2] turned out to be 3 days.

The term IC50 denotes the midpoint of a concentration-inhibition curve.
